{"source": "patent US8030004B2", "about": "“Cell free screening assay and methods of use” (Oregon Health & Science University, priority 2005, dated 2011)", "assay_type_in_all_cases": "biochemical", "key": {"xFANCA, xFANCF, xFANCD2": {"tested_on": "xFANCA, xFANCF, xFANCD2", "assay": "Chromatin binding of xFA proteins in replicating S-phase Xenopus egg extracts with sperm chromatin", "conditions": "for chromatin binding of xFA proteins (xFANCA, xFANCF, xFANCD2): replicating S-phase extracts with sperm chromatin", "procedure": "Following replication (60 minutes), chromatin was re-isolated and the same blot was assayed in series for the presence of the xFA proteins indicated. A non-specific band is indicated (asterisk) as a loading control. […] A replication assay was performed to monitor incorporation of α-^32P-GTP during one round of replication in extracts treated as indicated. Total amounts of replication products at 60 minutes following addition of sperm chromatin to non-treated or treated extracts were analyzed by agarose gel electrophoresis and exposure to X-ray film. Band density percentages were determined using a BioRad Molecular PhosphorImager Fx (Kodak screens, Quantity-1 software). […] 1000 sperm pronuclei/ul were added to replicating extracts containing different concentrations of MMC (lanes 3-9). Extracts were otherwise untreated or contained caffeine (lanes 6+7) or a neutralizing anti-xATR antibody (lanes 8+9). MMC-concentrations: 150 μM (lanes 3, 6, 8), 50 μM (lanes 4, 7, 9), or 5 μM (lane 5). […] Sperm chromatin was added to S-phase egg extracts. Xenopus egg extracts were either untreated (−) or aphidicolin was added (+) at the indicated time points following addition of sperm DNA: 0 minutes, pre-nuclear membrane formation; 30 minutes, beginning of replication; 60 minutes, mid-replication; 90 minutes late/post-replication; and 120 minutes, post replication. All chromatin fractions were re-isolated at 135 minutes following addition of sperm DNA, analyzed by SDS-PAGE and immunoblotted as indicated. […] Xenopus egg extracts were treated with beads coupled to preimmune serum (lanes 2, 3, and 5) or beads coupled to anti-xATRIP serum (lanes 1, 4, and 6). Sperm chromatin was added to preimmune or xATRIP depleted extracts and allowed to replicate. Xenopus egg extracts were either untreated or supplemented with aphidicolin (added at 50 minutes following addition of sperm DNA). Chromatin fractions were re-isolated at 70 minutes and assayed for the presence of xFANCD2, xFANCA, xATRIP and xORC-2 by immunoblotting. […]"}, "DNA replication": {"tested_on": "DNA replication", "assay": "DNA replication assay of sperm chromatin in S-phase Xenopus egg extracts", "procedure": "Following replication (60 minutes), chromatin was re-isolated and the same blot was assayed in series for the presence of the xFA proteins indicated. A non-specific band is indicated (asterisk) as a loading control. […] A replication assay was performed to monitor incorporation of α-^32P-GTP during one round of replication in extracts treated as indicated. Total amounts of replication products at 60 minutes following addition of sperm chromatin to non-treated or treated extracts were analyzed by agarose gel electrophoresis and exposure to X-ray film. Band density percentages were determined using a BioRad Molecular PhosphorImager Fx (Kodak screens, Quantity-1 software). […] 1000 sperm pronuclei/ul were added to replicating extracts containing different concentrations of MMC (lanes 3-9). Extracts were otherwise untreated or contained caffeine (lanes 6+7) or a neutralizing anti-xATR antibody (lanes 8+9). MMC-concentrations: 150 μM (lanes 3, 6, 8), 50 μM (lanes 4, 7, 9), or 5 μM (lane 5). […] Sperm chromatin was added to S-phase egg extracts. Xenopus egg extracts were either untreated (−) or aphidicolin was added (+) at the indicated time points following addition of sperm DNA: 0 minutes, pre-nuclear membrane formation; 30 minutes, beginning of replication; 60 minutes, mid-replication; 90 minutes late/post-replication; and 120 minutes, post replication. All chromatin fractions were re-isolated at 135 minutes following addition of sperm DNA, analyzed by SDS-PAGE and immunoblotted as indicated. […] Xenopus egg extracts were treated with beads coupled to preimmune serum (lanes 2, 3, and 5) or beads coupled to anti-xATRIP serum (lanes 1, 4, and 6). Sperm chromatin was added to preimmune or xATRIP depleted extracts and allowed to replicate. Xenopus egg extracts were either untreated or supplemented with aphidicolin (added at 50 minutes following addition of sperm DNA). Chromatin fractions were re-isolated at 70 minutes and assayed for the presence of xFANCD2, xFANCA, xATRIP and xORC-2 by immunoblotting. […] Xenopus egg extracts were treated with beads coupled to preimmune serum (lanes 1 and 3) or beads coupled to anti-xFANCA serum (lanes 2 and 4). Sperm chromatin was added to preimmune or xFANCA depleted extracts and allowed to replicate. Xenopus egg extracts were either untreated or supplemented with aphidicolin (added at 50 minutes following addition of sperm DNA). Chromatin fractions were re-isolated at 70 minutes and assayed for the presence of xFANCA, xATRIP and xORC-2 by immunoblotting.\nPreparation of Xenopus egg extracts: Extracts were prepared from Xenopus eggs according to the method of Murray (Murray, Methods Cell Biol. 36:581-605, 1991). In brief, eggs were de-jellied in 2% cysteine, pH 7.8, washed three times in XB buffer (10 mM KCl, 1 mM MgCl2, […] CaCl2, 10 mM HEPES, 5 mM ethylene glycol tetraacetic acid (EGTA), 1.75% w/v sucrose, pH 7.8) and washed three times in CSF-XB buffer (5 mM EGTA, 2 mM MgCl2). Eggs were crushed by low speed centrifugation (10,000 g, 10 minutes) and the cytoplasmic fraction was cleared by centrifugation (16,000 g, 20 minutes) after the addition of energy mix (15 mM creatine phosphate, 2 mM ATP, 2 mM MgCl2), cytochalasin B (10 μg/ml), cycloheximide (100 μg/ml), and PEFABLOC™ (4-(2-aminoethyl)benzenesulfonylfluoride) (100 μg/ml). In some of the examples described herein, the extracts were released from M to S phase by the addition of CaCl2 to a final concentration of 0.4 mM. In some examples, the released extracts were incubated for 20 minutes at 23° C. Where indicated, mitomycin C (5-150 μM) and caffeine (4 mM), Tautomycin (3 uM), etoposide (30 or 60 uM), and ICRF-193 (150 and 300 uM) were added to S-phase extracts immediately prior to the addition of DNA substrates or sperm chromatin and incubated for the time indicated; aphidicolin (50 ng/1 μl), was added at the time points indicated."}, "xFANCM": {"tested_on": "xFANCM", "assay": "Xenopus egg cell free extract: xFANCM mobility shift (phosphorylation) upon addition of DNA, immunoblot", "conditions": "natural product screen membranes reprobed with xFANCM antibody (FIG. 7B)", "procedure": "10 ul Xenopus egg extracts was combined with 0.5 ul compound (10 mM) or curcumin (control, 23 uM) then 0.5 ul plasmid DNA (pBluescript, 3.4 ug/ul) was added. The sample was incubated for 45 min at room temperature, then 60 ul of 1×SDS loading buffer. After incubation at 95° C. for 10 min, samples were resolved onto a NUPAGE™ 3-8% tris-acetate gradient gel (Invitrogen) and transferred onto a PVDF membrane (Immobilon P, Millipore).\nOf the 235 compounds tested 7 (NP-A3, NP-A7, NP-D8, NP-E3, NP-F2, NP-F8, NP-H8) were positive for modulation of xFANCD2 activation (see FIG. 14). Membranes initially probed with xFANCD2 antibody were reprobed with xFANCM antibody. […] Thus xFANCM can be used as an indicator of Fanconi anemia pathway activation."}, "xFANCD2": {"tested_on": "xFANCD2", "assay": "Induction of xFANCD2-L by circular plasmid dsDNA in Xenopus egg cell free extracts, immunoblot", "conditions": "for induction of xFANCD2-L in the presence of circular plasmid DNA: 200 ng/ul circular plasmid dsDNA, etoposide 30 or 60 uM, ICRF-193 150 or 300 uM", "procedure": "FIG. 13A is a digital image of an immunoblot showing Xenopus egg cell free extracts that were incubated with 160 ng/ul circular plasmid dsDNA for 30 min in the presence or absence of the replication initiation inhibitor geminin. Efficiency of replication inhibition was measured by performing a parallel replication assay using an aliquot of the geminin-treated extract (smaller panel in figure FIG. 13A). FIG. 13B is a digital image of an immunoblot showing that non-activated, M-phase egg extracts or CaCl2-activated, S-phase egg extracts were incubated with 160 ng/ul circular plasmid dsDNA. Extract aliquots (1 ul) were taken at the indicated time points and analyzed for xFANCD2 and xMre11. […] FIG. 13C is a digital image of an immunoblot showing Xenopus egg cell free extracts that were incubated with 160 ng/ul circular plasmid dsDNA for 30 min in the presence or absence of the checkpoint kinase inhibitor caffeine. Where indicated, extracts were supplemented with the phosphatase inhibitor, tautomycin, to stabilize xMre11-PPP. Following incubation, 1 ul of extract was analyzed for xFANCD2 and xMre11 by immunoblot. DNA-free extract was used as a size control for xFANCD2-S and xMre11 (lane 1). FIG. 13D is a digital image of an immunoblot showing Xenopus egg cell free extracts that were incubated either with bead-coupled anti-xATRIP antibody or with bead-coupled pre-immune serum and incubated with 200 ng/ul circular plasmid dsDNA. Aliquots were taken at different time points and assayed for xFANCD2 by immunoblot. 1 ul of DNA-free extract was used as a size control for xFANCD2-S (lane 5). […] Xenopus egg cell free extracts containing 200 ng/ul of circular plasmid dsDNA were incubated with etoposide (30 uM, lane 2; 60 uM, lane 3) or ICRF-193 (150 uM, lane 4; 300 uM, lane 5). Xenopus egg cell free extracts containing 200 ng/ul of circular plasmid dsDNA but not topoisomerase IIα inhibitor were used as positive control and DNA-free extracts were used as negative control for induction of xFANCD2-L. […]"}, "xMre11": {"tested_on": "xMre11", "assay": "Induction of xMre11-PPP by plasmid DNA in Xenopus egg cell free extracts, immunoblot", "procedure": "FIG. 13A is a digital image of an immunoblot showing Xenopus egg cell free extracts that were incubated with 160 ng/ul circular plasmid dsDNA for 30 min in the presence or absence of the replication initiation inhibitor geminin. Efficiency of replication inhibition was measured by performing a parallel replication assay using an aliquot of the geminin-treated extract (smaller panel in figure FIG. 13A). FIG. 13B is a digital image of an immunoblot showing that non-activated, M-phase egg extracts or CaCl2-activated, S-phase egg extracts were incubated with 160 ng/ul circular plasmid dsDNA. Extract aliquots (1 ul) were taken at the indicated time points and analyzed for xFANCD2 and xMre11. […] FIG. 13C is a digital image of an immunoblot showing Xenopus egg cell free extracts that were incubated with 160 ng/ul circular plasmid dsDNA for 30 min in the presence or absence of the checkpoint kinase inhibitor caffeine. Where indicated, extracts were supplemented with the phosphatase inhibitor, tautomycin, to stabilize xMre11-PPP. Following incubation, 1 ul of extract was analyzed for xFANCD2 and xMre11 by immunoblot. DNA-free extract was used as a size control for xFANCD2-S and xMre11 (lane 1). […]"}, "[1]": {"conditions": "high concentration of circular plasmid DNA (100 ng/ul), caffeine or geminin added"}}, "note": "“Also recorded” adds a separate entry of the source."}
{"compound": "CO[C@@]12[C@H](COC(N)=O)C3=C(C(=O)C(C)=C(N)C3=O)N1C[C@@H]1N[C@@H]12", "note": "[MMC, mitomycin C]", "values": [{"measurement": "chromatin binding of xFA proteins (xFANCA, xFANCF, xFANCD2)", "setting": "xFANCA, xFANCF, xFANCD2", "result": "increased"}, {"measurement": "replication (incorporation of radiolabeled nucleotides into nascent DNA)", "setting": "DNA replication; 60 minutes after addition of sperm chromatin (FIG. 3A top right)", "result": "reduced"}, {"measurement": "DNA replication", "setting": "DNA replication; MMC 150 μM", "result": "significantly blocked"}, {"measurement": "DNA replication", "setting": "DNA replication; lower MMC concentrations (50 μM, 5 μM)", "result": "less inhibited"}]}
{"compound": "C[C@@]12C(=O)OC(=O)[C@]1(C)[C@H]1CC[C@@H]2O1", "note": "[NP-B11, cantharidin]", "values": [{"measurement": "shift corresponding to xFANCM phosphorylation upon addition of DNA", "setting": "xFANCM", "result": "stimulates the post-translational modification of xFANCM or inhibits the dephosphorylation of xFANCM; also recorded: strongly stimulated"}]}
{"compound": "C[C@@]1(CO)[C@H](O)CC[C@@]2(C)[C@H]1CC[C@H]1C[C@@H]3C[C@@]12CC[C@]3(O)CO", "note": "[aphidicolin]", "values": [{"measurement": "chromatin binding of xFA proteins (xFANCA, xFANCF, xFANCD2)", "setting": "xFANCA, xFANCF, xFANCD2", "result": "increased chromatin association"}]}
{"compound": "Cn1c(=O)c2c(ncn2C)n(C)c1=O", "note": "[caffeine]", "values": [{"measurement": "activation of xFANCD2-L by circular plasmid DNA", "setting": "xFANCD2; [1]", "result": "not significantly affected"}, {"measurement": "induction of Mre11-PPP in response to dsDNA fragments", "setting": "xMre11; dsDNA fragments generated by HaeIII-digest", "result": "inhibited"}, {"measurement": "induction of xMre11-PPP by circular plasmid DNA", "setting": "xMre11; [1]", "result": "inhibited"}, {"measurement": "MMC-induced recruitment of xFA proteins to chromatin", "setting": "xFANCA, xFANCF, xFANCD2; MMC-treated replicating extracts plus caffeine", "result": "reversed"}, {"measurement": "rescue of MMC-blocked replication", "setting": "DNA replication; MMC 150 μM plus caffeine", "result": "could not be rescued"}, {"measurement": "rescue of MMC-reduced replication", "setting": "DNA replication; MMC-treated extracts plus caffeine (FIG. 3A top right)", "result": "rescued"}, {"measurement": "rescue of MMC-inhibited replication", "setting": "DNA replication; lower MMC concentration (50 μM) plus caffeine", "result": "could be rescued"}]}
{"compound": "COc1cc([C@@H]2c3cc4c(cc3[C@@H](O[C@@H]3O[C@@H]5CO[C@@H](C)O[C@H]5[C@H](O)[C@H]3O)[C@H]3COC(=O)[C@H]23)OCO4)cc(OC)c1O", "note": "[etoposide]", "values": [{"measurement": "induction of xFANCD2-L in the presence of circular plasmid DNA", "setting": "xFANCD2", "result": "significantly blocked"}]}
{"compound": "ICRF-193", "values": [{"measurement": "induction of xFANCD2-L in the presence of circular plasmid DNA", "setting": "xFANCD2", "result": "significantly blocked"}]}
